According to PubChem BioAssay (NCI):
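Step 1: Grow cells in 96-well plates. Step 2: Expose to compound for 48 hours at 5 concentrations. Step 3: Interpolate endpoints linearly; if unreached, use highest concentration. TGI denotes the concentration required for complete inhibition of growth.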

Experiments:
Assay in all cases: NCI anticancer screen, dose series, 48 h
SK-MEL-2 melanoma = test system: SK-MEL-2 melanoma
OVCAR-8 ovarian = test system: OVCAR-8 ovarian
SR leukemia = test system: SR leukemia
NCI-H23 lung = test system: NCI-H23 lung
MDA-N = test system: MDA-N
RXF 393 renal = test system: RXF 393 renal
M14 melanoma = test system: M14 melanoma
HCC-2998 colon = test system: HCC-2998 colon
SK-OV-3 ovarian = test system: SK-OV-3 ovarian
KM12 colon = test system: KM12 colon
A549 NSCLC = test system: A549 NSCLC

| Structure (SMILES) | TGI (SK-MEL-2 melanoma) [µM] | TGI (OVCAR-8 ovarian) [µM] | TGI (SR leukemia) [µM] | TGI (NCI-H23 lung) [µM] | TGI (MDA-N) [µM] | TGI (RXF 393 renal) [µM] | TGI (M14 melanoma) [µM] | TGI (HCC-2998 colon) [µM] | TGI (SK-OV-3 ovarian) [µM] | TGI (KM12 colon) [µM] | TGI (A549 NSCLC) [µM] |
| --- | --- | --- | --- | --- | --- | --- | --- | --- | --- | --- | --- |
| CC1(C2(C)OC(=O)c3ccccc32)OC(=O)c2ccccc21 (stereo not given) | > 100 | > 100 | > 100 | > 100 | > 100 | > 100 | > 100 | > 100 | > 100 | > 100 | > 100 |
| CN(C)CCNc1ccc2c(=O)n(CCN(C)C)c(=O)n3c4ccc([N+](=O)[O-])cc4c(=O)c1c23 | 1.31 | 3.99 | 0.581 | 0.777 | 1.38 | 0.996 | 2.38 | 2.27 | 6.72 | 4.95 | 2.26 |
| COc1ccc(C2SCC(=O)N2c2ccc(-n3c(-c4ccccc4)nc4ccccc4c3=O)cc2)cc1OC (stereo not given) | > 100 | > 100 | > 100 | > 100 | > 100 |  | > 100 | > 100 | > 100 | > 100 | > 100 |
| CCCCn1c(C)c(C(=O)OCC)s/c1=N/Nc1nc2ccccc2nc1-c1ccccc1 | > 100 | > 100 | > 100 | > 100 | > 100 | > 100 | > 100 | > 100 | > 100 |  | > 100 |
| COc1ccc2nc3ccc(OC)cc3c(S(=O)(=O)Cc3ccc([N+](=O)[O-])cc3)c2c1 | > 100 | > 100 | > 100 | > 100 | > 100 | > 100 | > 100 | > 100 | > 100 | > 100 | > 100 |
| CC(=O)OCC1OC(n2c3c(c(-c4ccco4)c(C#N)c2=S)CCC3)C(OC(C)=O)C(OC(C)=O)C1OC(C)=O (stereo not given) | > 100 |  | > 100 | > 100 | > 100 | 86.9 | > 100 | > 100 | > 100 | > 100 | > 100 |
| O=c1[nH]c(Nc2cccc(C(F)(F)F)c2)nc2nc[nH]c12 | > 100 | > 100 | > 100 |  | > 100 | > 100 | > 100 | > 100 | > 100 | > 100 | > 100 |
| CCCCCNc1nonc1N | > 100 | > 100 | > 100 | > 100 | > 100 | > 100 | > 100 | > 100 | > 100 | > 100 | > 100 |
| Cc1ccc(-c2c(C#N)c(S)n(NS(=O)(=O)c3ccc(C)cc3)c(=O)c2C#N)cc1 | 62.2 | 41.8 | > 100 | 52.3 | > 100 | 97.5 | 81.5 | 46.9 | > 100 | 35.2 | > 100 |
| CN(C)c1ccc(/C=C(\C#N)C(N)=C(C#N)C#N)cc1 |  | > 100 | > 100 | > 100 | > 100 | > 100 | > 100 | > 100 | > 100 | > 100 | > 100 |
| CC(C)(C)c1ccc(-c2nc3ccc([N+](=O)[O-])cc3c(=O)o2)cc1 | 47 | 83.9 | 68.7 | 78.7 | > 100 | 96.7 | > 100 | 33 | 95.7 | 69.9 | > 100 |
| CC1CC[C@@]2(OC1)OC1C[C@H]3[C@@H]4C/C(=N\N(C)C)[C@@]5(O)CC(O)CC[C@]5(C)[C@H]4CC[C@]3(C)C1[C@@H]2C (stereo not given in full) | > 100 |  | 54.6 | > 100 | 52.6 | 61.2 | > 100 | > 100 | > 100 | > 100 | > 100 |
| CC(=O)C(=[N+]=[N-])C(=O)OC(C)(C)C#N | > 10 | > 10 | > 10 | > 10 | > 10 | > 10 | > 10 | > 10 | > 10 | > 10 | > 10 |
| COC(=O)C1(Cc2ccc3c(c2)CCC3)Cc2ccc3c(c2C1O)CCC3 (stereo not given) |  | 39.1 | > 100 |  | 29.8 | 31 |  | 30.9 | 51.8 | 38.9 | 37.3 |
| CC1(C)C(=O)C(C)(C)C12SSC1(S2)C(C)(C)C(=O)C1(C)C | > 100 | > 100 | > 100 | > 100 | > 100 |  | > 100 | > 100 | > 100 | > 100 | > 100 |
